Experimental data reported in PMC10194981, “Chemosensory protein regulates the behavioural response of Frankliniella intonsa and Frankliniella occidentalis to tomato zonate spot virus–Infected pepper (Capsicum annuum)” (PLOS Pathogens, 2023).

Assays:
F. intonsa = assay: Y-tube olfactometer preference test; assay type: in vivo, Frankliniella intonsa
Protocol: F. intonsa and F. occidentalis preference tests of plant volatile cues were performed using a glass Y-tube olfactometer according to the method described by Wang et al. (2014) with minor modifications. A Y-shaped tube (1-cm inner diameter) consisted of a central tube (10 cm in length) and two arms (10 cm in length, offset by 60°) connected to two different glass odor bottles. One glass odor bottle was 50 cm in height, with a 10-cm inner diameter that contained pepper plants (14-day post-viral infection); the other glass odor bottle was 5 cm in height, with a 3-cm inner diameter for plant VOCs. The airflow in the olfactometer (200 mL/min) was filtered through activated carbon and calibrated using a flow meter at the end of each arm. To remove all visual cues, the Y-tube was positioned horizontally in a black airtight cubic box (90 cm × 60 cm × 40 cm). The tested odor sources (pepper plant VOCs) were enclosed in the odor bottles 5 min prior to each test to allow the odors to fill the arms. Thrips (2-day-old, starved for 1 h) were individually placed in the central tube and allowed to choose between the two arms. When the thrips had climbed over 2/3 of the side arm and stayed there for more than 30 s, it was considered to have made a selection. If the thrips had not made a choice after being placed in the straight arm for 5 min, the insect behaviour was scored as “no selection,” and it was not counted in the total data. The direction of the Y-tube arms and the silicone tubes were adjusted after five tested thrips to eliminate the influence of position. The Y-tube was replaced after 10 tested thrips to eliminate the possible influence of existing odors on thrips behaviour. Each treatment consisted of 20 thrips, with three replicates per treatment.
The FintCSP1, FintCSP2, FintOBP, FintOR, FoccCSP, and enhanced green fluorescent protein (EGFP) coding sequences were obtained from GenBank under accession numbers MT199111, MT211602, OK067245, MT211603, AEP27186.1, and U55761.1, respectively. Primers were designed using Primer Premier 5.0, and the T7 promoter sequence (5′-[…]-3′) was added to the 5′ end of each primer (S1 Table). DNA fragments containing T7 promoter sequences were amplified by PCR using pEASY-T1/target gene or pUC-EGFP (preserved in the laboratory) plasmid DNA as template. Then, a double-stranded RNA (dsRNA) was produced from each target gene using the HiScribe T7 Quick High Yield RNA Synthesis Kit (New England Biolabs) according to the manufacturer’s instructions. […]

FintCSP1-Ser84Ala = FintCSP1-Ser84Ala (Frankliniella intonsa, UniProt A0A891LVF4, S84A); assay: Fluorescence (1-NPN) binding and competitive binding assay, FintCSP1 mutant
Protocol: (§1) The binding affinity of FintCSP1 and FoccCSP to the fluorescent probe N-phenyl-1-naphthylamine (1-NPN) was tested using a Spectramax M2 fluorescence spectrometer (Molecular Devices, USA) as reported previously. Volatile compounds and 1-NPN were first dissolved to a concentration of 1 mM in HPLC-grade methanol and dissolved to their indicated final concentration (2–20 μM) to titrate 2 μM protein solutions resuspended in 50 mM Tris-HCl (pH 7.4). The 1-NPN/FintCSP1 or 1-NPN/FoccCSP mixture was excited at 280 nm, and the emission spectra were recorded at 415 nm. The binding constants (Kd) of FintCSP1 or FoccCSP to 1-NPN were calculated by Scatchard analysis using Prism 5 software (GraphPad, La Jolla, CA, USA). Assuming a protein activity of 100% and that the volatile compound binds to the protein in a 1:1 ratio at saturation, the dissociation constants (Ki) of FintCSP1 or FoccCSP for each ligand were calculated according to the IC50 (the concentration when the ligand replaces 50% of the probe) value of the volatile compounds. The Ki values were calculated according to the following equation: Ki = [IC50]/(1 + [1-NPN]/K1-NPN), where [1-NPN] is the free concentration of 1-NPN, and K1-NPN is the Kd of the 1-NPN/FintCSP1 or 1-NPN/FoccCSP.
(§2) To verify the key amino acids of FintCSP1 and FoccCSP that bind to cis-3-hexenal, six amino acid residues of FintCSP1 were mutated (Lys26Ala, Phe27Ala, Thr28Ala, Glu67Ala, Ser84Ala, and the negative control residue Val132Ala) and nine amino acid residues of FoccCSP were mutated (Lys26Ala, Phe27Ala, Thr28Ala, Thr29Ala, Tyr31Ala, Asp64Ala, Glu67Ala, Gln87Ala, and the negative control residue Val132Ala) with the Fast Mutagenesis System Kit (Transgen Biotech, Beijing, China) using the pET-30a/FintCSP1 and pET-30a/FoccCSP plasmid DNA as template, respectively. […] After validation by sequencing, each recombinant variant protein was produced and purified as described above, and their binding affinity to cis-3-hexenal was measured as described above.

FintCSP1-Val132Ala = FintCSP1-Val132Ala (Frankliniella intonsa, UniProt A0A891LVF4, V132A); assay: Fluorescence (1-NPN) binding and competitive binding assay, FintCSP1 mutant (negative control residue)
Protocol: as §1, §2

[1] = tested on: OBP5 from Apolygus lucorum; design: method as in PMID 23665333; conditions: cited from earlier work
F. occidentalis = assay: Y-tube olfactometer preference test; assay type: in vivo, Frankliniella occidentalis; conditions: dsFoccCSP-injected; vs liquid paraffin control
Protocol: F. intonsa and F. occidentalis preference tests of plant volatile cues were performed using a glass Y-tube olfactometer according to the method described by Wang et al. (2014) with minor modifications. A Y-shaped tube (1-cm inner diameter) consisted of a central tube (10 cm in length) and two arms (10 cm in length, offset by 60°) connected to two different glass odor bottles. One glass odor bottle was 50 cm in height, with a 10-cm inner diameter that contained pepper plants (14-day post-viral infection); the other glass odor bottle was 5 cm in height, with a 3-cm inner diameter for plant VOCs. The airflow in the olfactometer (200 mL/min) was filtered through activated carbon and calibrated using a flow meter at the end of each arm. To remove all visual cues, the Y-tube was positioned horizontally in a black airtight cubic box (90 cm × 60 cm × 40 cm). The tested odor sources (pepper plant VOCs) were enclosed in the odor bottles 5 min prior to each test to allow the odors to fill the arms. Thrips (2-day-old, starved for 1 h) were individually placed in the central tube and allowed to choose between the two arms. […] If the thrips had not made a choice after being placed in the straight arm for 5 min, the insect behaviour was scored as “no selection,” and it was not counted in the total data. […]

M. sexta larvae = tested on: M. sexta larvae; design: method as in PMID 25261073; conditions: cited from earlier work

Sequence of FintCSP1-Val132Ala (A0A891LVF4 entry or part of it V132A): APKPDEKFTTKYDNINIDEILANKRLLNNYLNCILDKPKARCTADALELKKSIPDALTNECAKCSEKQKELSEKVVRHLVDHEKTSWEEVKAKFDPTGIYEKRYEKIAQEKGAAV
Sequence of FintCSP1-Ser84Ala (A0A891LVF4 entry or part of it S84A): as the sequence (A0A891LVF4 entry or part of it V132A) above, with S65A, A113V counted along it

CC/C=C\CC=O [cis-3-hexenal]
individuals that recognized the compound (F. intonsa; dsEGFP-treated F. intonsa, vs liquid paraffin control): 73.3% | preference of FintCSP1-silenced thrips (in words) (F. intonsa; dsFintCSP1-injected F. intonsa, vs liquid paraffin control): no preference | preference of F. intonsa in Y-tube olfactometer (in words) (F. intonsa; volatile compound vs liquid paraffin control, n = 60): reached statistical significance | IC50 (FintCSP1-Ser84Ala): 41.3 ± 3.96 µM | Ki (FintCSP1-Ser84Ala): 29.7 ± 2.84 µM | IC50 (FintCSP1-Val132Ala): 39.24 ± 0.36 µM | Ki (FintCSP1-Val132Ala): 32.18 ± 0.29 µM | binding to OBP5 (in words) [1]: strongly binds | preference of dsFoccCSP-silenced F. occidentalis (in words) (F. occidentalis): no clear preference | effect on M. sexta larvae (in words) (M. sexta larvae): feeding stimulant
